{
  "source": "patent US4904590A",
  "about": "“Antibiotic A80915 and process for its production” (Eli Lilly and Company, priority 1988, dated 1990)",
  "key": {"[1]": {"tested_on": "Fusobacterium necrophorum 6054A", "assay": "Susceptibility of anaerobic bacterial isolates (MIC), agar-dilution", "format": "cell-based", "settings": "Fusobacterium necrophorum, 6054A, 24 h"}, "Trichomonas foetus": {"tested_on": "Trichomonas foetus", "assay": "Anti-protozoan activity (MIC)", "format": "cell-based", "settings": "Tritrichomonas foetus"}, "[2]": {"tested_on": "Bacteriodes melaninogenicus 2736", "assay": "Susceptibility of anaerobic bacterial isolates (MIC), agar-dilution", "format": "cell-based", "settings": "24 h"}, "[3]": {"tested_on": "Fusobacterium symbiosum 1470", "assay": "Susceptibility of anaerobic bacterial isolates (MIC), agar-dilution", "format": "cell-based", "settings": "Fusobacterium, 1470, 24 h"}, "[4]": {"tested_on": "Bacteriodes vulgatis 1211", "assay": "Susceptibility of anaerobic bacterial isolates (MIC), agar-dilution", "format": "cell-based", "settings": "24 h"}, "[5]": {"tested_on": "Clostridium difficile 2994", "assay": "Susceptibility of anaerobic bacterial isolates (MIC), agar-dilution", "format": "cell-based", "settings": "Clostridioides difficile, 2994, 24 h"}, "[6]": {"tested_on": "Propionibacterium acnes 79", "assay": "Susceptibility of anaerobic bacterial isolates (MIC), agar-dilution", "format": "cell-based", "settings": "Cutibacterium acnes, 79, 24 h"}, "[7]": {"tested_on": "Bacteriodes fragilis 1936B", "assay": "Susceptibility of anaerobic bacterial isolates (MIC), agar-dilution", "format": "cell-based", "settings": "24 h"}, "[8]": {"tested_on": "Eubacterium aerofaciens 1235", "assay": "Susceptibility of anaerobic bacterial isolates (MIC), agar-dilution", "format": "cell-based", "settings": "Collinsella aerofaciens, 1235, 24 h"}, "[9]": {"assay": "Spontaneous loss of nitrogen on standing in solvent", "format": "physicochemical", "settings": "standing at room temperature in a solvent such as methanol, ethanol or water", "source_text": "Loss of nitrogen is accelerated by, for example, heating or the addition of salts or mild reducing agents such as sodium hyposulfite, and the like."}, "[10]": {"tested_on": "Clostridium septicum 1128", "assay": "Susceptibility of anaerobic bacterial isolates (MIC), agar-dilution", "format": "cell-based", "settings": "24-hour incubation", "procedure": "The A80915 antibiotics also are active against anaerobic bacteria. […] End points were read after 24-hour incubation."}, "Pasteurella multocida": {"tested_on": "Pasteurella multocida", "format": "cell-based", "settings": "Veterinary organism Pasteurella multocida; agar-dilution", "procedure": "(§1) The A80915 antibiotics inhibit the growth of bacteria which are pathogenic to animal life. […] The MIC's in Table III were determined by conventional agar-dilution assays."}, "Escherichia coli": {"tested_on": "Escherichia coli", "format": "cell-based", "settings": "Veterinary organism Escherichia coli; agar-dilution", "procedure": "as §1"}, "[11]": {"tested_on": "Staphylococcus aureus V41", "format": "cell-based", "settings": "Staphylococcus aureus V41; agar-dilution; read-out: MIC", "procedure": "as §1"}, "[12]": {"tested_on": "Streptococcus pneumoniae Park1", "format": "cell-based", "settings": "Streptococcus pneumoniae, PARK1", "procedure": "as §1"}, "Gram-negative": {"tested_on": "Gram-negative", "format": "cell-based", "settings": "agar-dilution", "procedure": "as §1"}, "Salmonella typhimurium": {"tested_on": "Salmonella typhimurium", "format": "cell-based", "settings": "Salmonella enterica; Veterinary organism Salmonella typhimurium; agar-dilution", "procedure": "as §1"}, "Mycoplasma gallisepticum": {"tested_on": "Mycoplasma gallisepticum", "format": "cell-based", "settings": "Mycoplasmoides gallisepticum; Veterinary organism Mycoplasma gallisepticum; agar-dilution", "procedure": "as §1"}, "Staphylococcus sp.": {"tested_on": "Staphylococcus sp.", "format": "cell-based", "settings": "Veterinary organism Staphylococcus sp.; agar-dilution", "procedure": "as §1"}, "[13]": {"tested_on": "Streptococcus faecium X66", "format": "cell-based", "settings": "Enterococcus faecium; Streptococcus faecium X66; agar-dilution; read-out: MIC", "procedure": "as §1"}, "[14]": {"tested_on": "Staphylococcus epidermis 222", "format": "cell-based", "settings": "Staphylococcus epidermis 222; agar-dilution; read-out: MIC", "procedure": "as §1"}, "[15]": {"tested_on": "Staphylococcus aureus X400", "format": "cell-based", "settings": "Staphylococcus aureus X400; agar-dilution; read-out: MIC", "procedure": "as §1"}, "[16]": {"tested_on": "Bordetella bronchiseptica", "format": "cell-based", "settings": "Veterinary organism Bordetella bronchiseptica; agar-dilution", "procedure": "as §1"}, "[17]": {"tested_on": "Streptococcus pyogenes C203", "format": "cell-based", "settings": "Streptococcus pyogenes C203; agar-dilution; read-out: MIC", "procedure": "as §1"}, "[18]": {"tested_on": "Staphylococcus epidermis EPI1", "format": "cell-based", "settings": "Staphylococcus epidermis EPI1; agar-dilution; read-out: MIC", "procedure": "as §1"}, "Mycoplasma hyopneumoniae": {"tested_on": "Mycoplasma hyopneumoniae", "format": "cell-based", "settings": "Mesomycoplasma hyopneumoniae; Veterinary organism Mycoplasma hyopneumoniae; agar-dilution", "procedure": "as §1"}, "[19]": {"tested_on": "Staphylococcus aureus X1.1", "format": "cell-based", "settings": "Staphylococcus aureus X1.1; agar-dilution; read-out: MIC", "procedure": "as §1"}, "[20]": {"tested_on": "Streptococcus faecium 2041", "format": "cell-based", "settings": "Enterococcus faecium; Streptococcus faecium 2041; agar-dilution; read-out: MIC", "procedure": "as §1"}, "Pasteurella hemolytica": {"tested_on": "Pasteurella hemolytica", "format": "cell-based", "settings": "Veterinary organism Pasteurella hemolytica; agar-dilution", "procedure": "as §1"}, "Streptococcus sp.": {"tested_on": "Streptococcus sp.", "format": "cell-based", "settings": "Veterinary organism Streptococcus sp.; agar-dilution", "procedure": "as §1"}, "Peptococcus prevoti 1281": {"tested_on": "Peptococcus prevoti 1281", "assay": "Susceptibility of anaerobic bacterial isolates (MIC), agar-dilution", "format": "cell-based", "settings": "24 h"}, "[21]": {"tested_on": "Bacteriodes melaninogenicus 1856/28", "assay": "Susceptibility of anaerobic bacterial isolates (MIC), agar-dilution", "format": "cell-based", "settings": "24 h"}, "[22]": {"tested_on": "Peptostreptococcus intermedius 1264", "assay": "Susceptibility of anaerobic bacterial isolates (MIC), agar-dilution", "format": "cell-based", "settings": "Peptostreptococcus, 1264, 24 h"}, "[23]": {"tested_on": "Clostridium perfringens 81", "assay": "microbe, parasite or virus in culture", "format": "cell-based", "settings": "Clostridium perfringens, 81, 24 h"}, "[24]": {"tested_on": "Bacteriodes thetaiotaomicron 1438", "assay": "Susceptibility of anaerobic bacterial isolates (MIC), agar-dilution", "format": "cell-based", "settings": "24 h"}, "Bacteriodes fragilis 111": {"tested_on": "Bacteriodes fragilis 111", "assay": "Susceptibility of anaerobic bacterial isolates (MIC), agar-dilution", "format": "cell-based", "settings": "24 h"}, "[25]": {"tested_on": "Peptostreptococcus anaerobius 1428", "assay": "Susceptibility of anaerobic bacterial isolates (MIC), agar-dilution", "format": "cell-based", "settings": "Peptostreptococcus anaerobius, 1428, 24 h"}, "[26]": {"tested_on": "Bacteriodes fragilis 1877", "assay": "Susceptibility of anaerobic bacterial isolates (MIC), agar-dilution", "format": "cell-based", "settings": "24 h"}, "Trichomonas vaginalis": {"tested_on": "Trichomonas vaginalis", "assay": "Anti-protozoan activity (MIC)", "format": "cell-based"}, "[27]": {"tested_on": "Bacteriodes corrodens 1874", "assay": "Susceptibility of anaerobic bacterial isolates (MIC), agar-dilution", "format": "cell-based", "settings": "24 h"}, "[28]": {"tested_on": "Peptococcus asaccharolyticus 1302", "assay": "Susceptibility of anaerobic bacterial isolates (MIC), agar-dilution", "format": "cell-based", "settings": "Peptoniphilus asaccharolyticus, 1302, 24 h"}, "Candida albicans": {"tested_on": "Candida albicans", "assay": "Anti-fungal activity (MIC)", "format": "cell-based"}, "[29]": {"assay": "Acute toxicity in mice, intraperitoneal injection", "settings": "mouse, in vivo, ip", "source_text": "The acute toxicity of the A80915 antibiotics in mice, when administered by intraperitoneal injection and expressed as LD50, is shown in Table V."}},
  "data": [
    {"smiles": "C=C1CCC(Cl)C(C)(C)C1CC12OC(C)(C)C(Cl)CC1(Cl)C(=O)c1c(O)c(C)c([O-])c([N+]#N)c1C2=O", "note": "(stereo not shown) [A80915B]", "values": [
      {"measurement": "MIC", "setting": "[1]", "value": "> 128", "unit": "µg/mL"},
      {"measurement": "MIC", "setting": "Trichomonas foetus", "value": 12.5, "unit": "µg/mL"},
      {"measurement": "MIC", "setting": "[2]", "value": "> 128", "unit": "µg/mL"},
      {"measurement": "MIC", "setting": "[3]", "value": "> 128", "unit": "µg/mL"},
      {"measurement": "MIC", "setting": "[4]", "value": "> 128", "unit": "µg/mL"},
      {"measurement": "MIC", "setting": "[5]", "value": "> 128", "unit": "µg/mL"},
      {"measurement": "MIC", "setting": "[6]", "value": 128, "unit": "µg/mL"},
      {"measurement": "MIC", "setting": "[7]", "value": "> 128", "unit": "µg/mL"},
      {"measurement": "MIC", "setting": "[8]", "value": "> 128", "unit": "µg/mL"},
      {"measurement": "loss of nitrogen (stability)", "setting": "[9]", "value": "spontaneously lose nitrogen"},
      {"measurement": "MIC", "setting": "[10]", "value": "> 128", "unit": "µg/mL"},
      {"measurement": "MIC", "setting": "Pasteurella multocida", "value": 0.2, "unit": "µg/mL"},
      {"measurement": "MIC", "setting": "Escherichia coli", "value": "> 50", "unit": "µg/mL"},
      {"measurement": "MIC", "setting": "[11]", "value": 2, "unit": "µg/mL"},
      {"measurement": "MIC", "setting": "[12]", "value": 8, "unit": "µg/mL"},
      {"measurement": "MIC", "setting": "Gram-negative", "value": "> 128", "unit": "µg/mL"},
      {"measurement": "MIC", "setting": "Salmonella typhimurium", "value": "> 50", "unit": "µg/mL"},
      {"measurement": "MIC", "setting": "Mycoplasma gallisepticum", "value": 0.1, "unit": "µg/mL"},
      {"measurement": "MIC", "setting": "Staphylococcus sp.", "value": "< 0.05", "unit": "µg/mL"},
      {"measurement": "MIC", "setting": "[13]", "value": 8, "unit": "µg/mL"},
      {"measurement": "MIC", "setting": "[14]", "value": 2, "unit": "µg/mL"},
      {"measurement": "MIC", "setting": "[15]", "value": 2, "unit": "µg/mL"},
      {"measurement": "MIC", "setting": "[16]", "value": "> 50", "unit": "µg/mL"},
      {"measurement": "MIC", "setting": "[17]", "value": 8, "unit": "µg/mL"},
      {"measurement": "MIC", "setting": "[18]", "value": 2, "unit": "µg/mL"},
      {"measurement": "MIC", "setting": "Mycoplasma hyopneumoniae", "value": 3.12, "unit": "µg/mL"},
      {"measurement": "MIC", "setting": "[19]", "value": 2, "unit": "µg/mL"},
      {"measurement": "MIC", "setting": "[20]", "value": 8, "unit": "µg/mL"},
      {"measurement": "MIC", "setting": "Pasteurella hemolytica", "value": 12.5, "unit": "µg/mL"},
      {"measurement": "MIC", "setting": "Streptococcus sp.", "value": 0.1, "unit": "µg/mL"},
      {"measurement": "MIC", "setting": "Peptococcus prevoti 1281", "value": 64, "unit": "µg/mL"},
      {"measurement": "MIC", "setting": "[21]", "value": 128, "unit": "µg/mL"},
      {"measurement": "MIC", "setting": "[22]", "value": 128, "unit": "µg/mL"},
      {"measurement": "MIC", "setting": "[23]", "value": "> 128", "unit": "µg/mL"},
      {"measurement": "MIC", "setting": "[24]", "value": "> 128", "unit": "µg/mL"},
      {"measurement": "MIC", "setting": "Bacteriodes fragilis 111", "value": "> 128", "unit": "µg/mL"},
      {"measurement": "MIC", "setting": "[25]", "value": "> 128", "unit": "µg/mL"},
      {"measurement": "MIC", "setting": "[26]", "value": "> 128", "unit": "µg/mL"},
      {"measurement": "MIC", "setting": "Trichomonas vaginalis", "value": 6.25, "unit": "µg/mL"},
      {"measurement": "MIC", "setting": "[27]", "value": "> 128", "unit": "µg/mL"},
      {"measurement": "MIC", "setting": "[28]", "value": 128, "unit": "µg/mL"},
      {"measurement": "MIC", "setting": "Candida albicans", "value": 5, "unit": "µg/mL"},
      {"measurement": "LD50", "setting": "[29]", "value": 75, "unit": "mg/kg"}
    ]}
  ]
}
